System: 616215-338-R-J1-PDC complex spheroids, viability % test/control
Test: Anticancer human tumor 616215-338-R-J1-PDC patient-derived colon adenocarcinoma cell line growth inhibition [CLK]
Settings: for viability, T/C: stronger effect = lower value
Summary of the method: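 Patient-derived tumor cells grown as complex spheroids with HUVEC endothelial cells and mesenchymal stem cells, treated with drug combinations. Concentrations descend in half-log steps from near clinical Cmax, or from 10 microM if Cmax unknown.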

[1] = curve of first compound, second compound 0.0316 µM
[2] = curve of first compound, second compound 0.1 µM
[3] = curve of first compound, second compound 0.316 µM
[4] = curve of first compound, second compound 1 µM
[5] = curve of first compound, second compound 3.16 µM
[6] = curve of first compound, second compound 10 µM
[7] = second compound 0.0316 µM, first compound 0.0316 µM
[8] = second compound 0.0316 µM, first compound 0.1 µM
[9] = second compound 0.1 µM, first compound 0.0316 µM
[10] = second compound 0.1 µM, first compound 0.1 µM
[11] = second compound 0.316 µM, first compound 0.0316 µM
[12] = second compound 0.316 µM, first compound 0.1 µM
[13] = second compound 1 µM, first compound 0.0316 µM
[14] = second compound 1 µM, first compound 0.1 µM
[15] = second compound 3.16 µM, first compound 0.0316 µM
[16] = second compound 3.16 µM, first compound 0.1 µM
[17] = second compound 10 µM, first compound 0.0316 µM
[18] = second compound 10 µM, first compound 0.1 µM
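Further: spheroids exposed to agents for 7 days.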
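Wherever viability, T/C is given: 100% = DMSO vehicle wells.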

## O=C(c1cc(Cc2n[nH]c(=O)c3ccccc23)ccc1F)N1CCN(C(=O)C2CC2)CC1 + CN1CCN(c2cc(C(=O)Nc3cc4cc(-c5cnn(C)c5)ccc4cn3)ccn2)CC1
[1]
  IC50: > 10 µM
[2]
  IC50: > 10 µM
[3]
  IC50: < 0.0316 µM
[4]
  IC50: < 0.0316 µM
[5]
  IC50: < 0.0316 µM
[6]
  IC50: < 0.0316 µM
[7]
  viability, T/C: 99.4%
[8]
  viability, T/C: 113%
Second compound 0.0316 µM, first compound 0.316 µM
  viability, T/C: 100%
Second compound 0.0316 µM, first compound 1 µM
  viability, T/C: 96.6%
Second compound 0.0316 µM, first compound 3.16 µM
  viability, T/C: 103%
Second compound 0.0316 µM, first compound 10 µM
  viability, T/C: 67.3%
[9]
  viability, T/C: 114%
[10]
  viability, T/C: 110%
Second compound 0.1 µM, first compound 0.316 µM
  viability, T/C: 98.9%
Second compound 0.1 µM, first compound 1 µM
  viability, T/C: 107%
Second compound 0.1 µM, first compound 3.16 µM
  viability, T/C: 82.9%
Second compound 0.1 µM, first compound 10 µM
  viability, T/C: 55.4%
[11]
  viability, T/C: 34.9%
[12]
  viability, T/C: 44.1%
Second compound 0.316 µM, first compound 0.316 µM
  viability, T/C: 31.3%
Second compound 0.316 µM, first compound 1 µM
  viability, T/C: 40.5%
Second compound 0.316 µM, first compound 3.16 µM
  viability, T/C: 30.6%
Second compound 0.316 µM, first compound 10 µM
  viability, T/C: 29.3%
[13]
  viability, T/C: 0.12%
[14]
  viability, T/C: 0.17%
Second compound 1 µM, first compound 0.316 µM
  viability, T/C: 0.13%
Second compound 1 µM, first compound 1 µM
  viability, T/C: 0.1%
Second compound 1 µM, first compound 3.16 µM
  viability, T/C: 1.83%
Second compound 1 µM, first compound 10 µM
  viability, T/C: 0.09%
[15]
  viability, T/C: 0.09%
[16]
  viability, T/C: 0.15%
Second compound 3.16 µM, first compound 0.316 µM
  viability, T/C: 0.12%
Second compound 3.16 µM, first compound 1 µM
  viability, T/C: 0.1%
Second compound 3.16 µM, first compound 3.16 µM
  viability, T/C: 0.12%
Second compound 3.16 µM, first compound 10 µM
  viability, T/C: 0.19%
[17]
  viability, T/C: 0.11%
[18]
  viability, T/C: 0.14%
Second compound 10 µM, first compound 0.316 µM
  viability, T/C: 0.18%
Second compound 10 µM, first compound 1 µM
  viability, T/C: 0.13%
Second compound 10 µM, first compound 3.16 µM
  viability, T/C: 0.23%
Second compound 10 µM, first compound 10 µM
  viability, T/C: 1.83%

## CN1CCN(c2cc(C(=O)Nc3cc4cc(-c5cnn(C)c5)ccc4cn3)ccn2)CC1
Compound 0.0316 µM
  viability, T/C: 99.7% [middle of 12 runs]
Compound 0.1 µM
  viability, T/C: 107% [middle of 12 runs]
Compound 0.316 µM
  viability, T/C: 34.7% [middle of 12 runs]
Compound 1 µM
  viability, T/C: 1.63% [middle of 11 runs]
Compound 3.16 µM
  viability, T/C: 1% [middle of 11 runs]
Compound 10 µM
  viability, T/C: 0.25% [middle of 10 runs]
Compound alone, run of 07/31/2023
  IC50: 238 nM [middle of 11 runs]

## Cn1ncnc1[C@H]1c2n[nH]c(=O)c3cc(F)cc(c23)N[C@@H]1c1ccc(F)cc1 + CNC(=O)c1ccc(Nc2nc(OC3CCCC3)c3c(-c4ccc5nc(C)oc5c4)c[nH]c3n2)c(OC)c1
[1]
  IC50: > 0.1 µM
[2]
  IC50: < 0.000316 µM
[3]
  IC50: < 0.000316 µM
[4]
  IC50: < 0.000316 µM
[5]
  IC50: < 0.000316 µM
[6]
  IC50: < 0.000316 µM
Second compound 0.0316 µM, first compound 0.000316 µM
  viability, T/C: 97.2%
Second compound 0.0316 µM, first compound 0.001 µM
  viability, T/C: 93.8%
Second compound 0.0316 µM, first compound 0.00316 µM
  viability, T/C: 102%
Second compound 0.0316 µM, first compound 0.01 µM
  viability, T/C: 102%
[7]
  viability, T/C: 101%
[8]
  viability, T/C: 108%
Second compound 0.1 µM, first compound 0.000316 µM
  viability, T/C: 46.1%
Second compound 0.1 µM, first compound 0.001 µM
  viability, T/C: 46.5%
Second compound 0.1 µM, first compound 0.00316 µM
  viability, T/C: 47.9%
Second compound 0.1 µM, first compound 0.01 µM
  viability, T/C: 54.5%
[9]
  viability, T/C: 59.8%
[10]
  viability, T/C: 49.6%
Second compound 0.316 µM, first compound 0.000316 µM
  viability, T/C: 46.7%
Second compound 0.316 µM, first compound 0.001 µM
  viability, T/C: 45.3%
Second compound 0.316 µM, first compound 0.00316 µM
  viability, T/C: 40.5%
Second compound 0.316 µM, first compound 0.01 µM
  viability, T/C: 45.1%
[11]
  viability, T/C: 37.7%
[12]
  viability, T/C: 51.3%
Second compound 1 µM, first compound 0.000316 µM
  viability, T/C: 39.2%
Second compound 1 µM, first compound 0.001 µM
  viability, T/C: 44.8%
Second compound 1 µM, first compound 0.00316 µM
  viability, T/C: 41.9%
Second compound 1 µM, first compound 0.01 µM
  viability, T/C: 48.1%
[13]
  viability, T/C: 44.3%
[14]
  viability, T/C: 56.3%
Second compound 3.16 µM, first compound 0.000316 µM
  viability, T/C: 42.2%
Second compound 3.16 µM, first compound 0.001 µM
  viability, T/C: 45.1%
Second compound 3.16 µM, first compound 0.00316 µM
  viability, T/C: 45.5%
Second compound 3.16 µM, first compound 0.01 µM
  viability, T/C: 42.9%
[15]
  viability, T/C: 52%
[16]
  viability, T/C: 50.9%
Second compound 10 µM, first compound 0.000316 µM
  viability, T/C: 38.8%
Second compound 10 µM, first compound 0.001 µM
  viability, T/C: 43.6%
Second compound 10 µM, first compound 0.00316 µM
  viability, T/C: 50.2%
Second compound 10 µM, first compound 0.01 µM
  viability, T/C: 50.1%
[17]
  viability, T/C: 54.9%
[18]
  viability, T/C: 47.2%

Reference: PubChem BioAssay AID2060610 (Molecular Pharmacology Branch, DTP, NCI, 2025)
